According to article PMC4023990, “Characterization of the RnfB and RnfG Subunits of the Rnf Complex from the Archaeon Methanosarcina acetivorans” (PLoS ONE, 2014):

Tests used:
[1] = molecular target: T1, RnfG (Methanosarcina acetivorans, UniProt Q8TSY2, T166G); experiment: protein colour and UV fluorescence of the purified variant; assay type: binding; settings: removal of the covalent FMN attachment residue
T1 construct: full-length membrane subunit with C-terminal His6 tag (vector leader removed), made in E. coli LMG194, purified from membranes in dodecyl maltoside; isolated subunit of the Rnf complex
T1 sequence (Q8TSY2 whole entry T166G): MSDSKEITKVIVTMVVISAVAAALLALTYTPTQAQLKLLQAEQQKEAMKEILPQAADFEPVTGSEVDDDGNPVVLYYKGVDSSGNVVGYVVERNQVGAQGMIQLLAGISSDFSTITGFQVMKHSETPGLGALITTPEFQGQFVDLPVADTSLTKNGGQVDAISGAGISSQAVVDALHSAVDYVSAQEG

[2] = molecular target: T2, RnfG (Methanosarcina acetivorans, UniProt Q8TSY2); experiment: UV-visible absorbance of purified protein; UV fluorescence in SDS-PAGE gel; boiling and TCA treatment; assay type: binding; settings: covalent (flavin assigned as FMN, attached at Thr166); 25 µM protein, 25 mM Tris-HCl pH 8
T2 construct: full-length membrane subunit with C-terminal His6 tag (vector leader removed), made in E. coli LMG194, purified from membranes in dodecyl maltoside; isolated subunit of the Rnf complex
T2 sequence (Q8TSY2 whole entry): as the sequence (Q8TSY2 whole entry T166G) above, with G166T counted along it

molar ratio of flavin [2]: 0.84 mol/mol
SMILES: Cc1cc2nc3c(=O)[nH]c(=O)nc-3n(C[C@H](O)[C@H](O)[C@H](O)COP(=O)(O)O)c2cc1C [FMN]
colour and fluorescence [1]: The purified variant was colorless and failed to fluoresce under UV illumination
